Assay: Effective concentration required for production of cGMP in Chinese hamster ovary cells expressing natriuretic peptide receptor A (NPR-A)
Type: functional, cell-based

## CC[C@H](C)[C@@H]1NC(=O)[C@@H](CCCN=C(N)N)NC(=O)[C@H](CC(=O)O)NC(=O)[C@@H](CCSC)NC(=O)[C@H](CCCN=C(N)N)NC(=O)CNC(=O)CNC(=O)[C@@H](Cc2ccccc2)NC(=O)[C@H](Cc2c[nH]cn2)NC(=O)[C@@H](NC(=O)[C@@H](N)CCSC)CSSC[C@H](C(=O)N[C@@H](Cc2ccc(O)cc2)C(=O)N[C@@H](CCCN=C(N)N)C(N)=O)NC(=O)[C@@H](CO)NC1=O [MiniANP]
  EC50: 3.1 nM

— ChEMBL document CHEMBL1148388, “Restriction of a peptide turn conformation and conformational analysis of guanidino group using arginine-proline fused amino acids: application to mini atrial natriuretic peptide on binding to the receptor” (J Med Chem, 2004)
